Measured values from patent publication US20180010188A1, “METHOD FOR DETECTING NONSENSE-MEDIATED RNA DECAY” (The Regents of the University of California, priority 2016, published 2018).
“Also recorded” adds a separate entry of the source.

Key:
[1] = test system: immediate early genes c-fos, c-Jun and Pip92; experiment: RT-qPCR of immediate early genes; type: cell-based, mouse
Description: We then examined whether an increase in intracellular Ca^2+ is sufficient to inhibit NMD. We applied a wide dose range of ouabain, a cardiac glycoside used by Nickless et al., and measured the abundance of both NMD and non-NMD isoforms at various time-points. […] To further test whether increased intracellular Ca^2+ was sufficient to inhibit NMD, we treated the cells with ionomycin, a Ca^2+ ionophore, as another method of raising the cytoplasmic Ca^2+ concentration.
Neuro-2a (N2a) cells were maintained in N2a complete media consisting of L-glutamine-free Dulbecco's modified Eagle's medium (DMEM), 10% FBS and 1× GlutaMAX at 37° C. Thapsigargin (VWR, cat. no. 89161-410), ionomycin (Fisher Scientific, cat. no. AG-CN2-0416-M001) and ouabain octahydrate (Fisher Scientific, cat. no. 80055-364) were dissolved in DMSO and stored at −80° C. For the application of these chemicals, 750,000 cells were plated on 35 mm BioLite TC plates and incubated with 2 ml of N2a complete media overnight before treatment with the drugs at the indicated concentrations. […]
Trizol (Life Technologies, cat. no. 15596-018) was directly added to the cells or mouse brain tissues to extract total RNA following the Trizol Reagent standard protocol. […] RNA concentrations were measured using a Nanodrop 2000c (Thermo Fisher). […] Relative expression (fold changes) was calculated using the ΔΔCt method. […]

[2] = test system: NMD and non-NMD isoforms of Srsf11, Ptbp2, Tra2b, Hnrnpl and Psd-95 (cellular NMD activity); experiment: RT-qPCR of endogenous NMD and non-NMD isoforms to monitor cellular NMD activity; type: cell-based, mouse
Description: In our method, we measure the individual abundance of NMD-sensitive isoforms and that of their non-NMD counterparts via quantitative real-time PCR (qPCR). The NMD isoforms are first examined for differential expression between a treatment and a control condition. An increase in a NMD isoform may be due to NMD inhibition, transcriptional activation or a change in alternative splicing favoring the NMD isoform. These three scenarios can be distinguished by examining the expression of the non-NMD counterparts. Genuine NMD regulation, transcriptional activation and alternative splicing regulation would lead to no change, upregulation and down-regulation of the NMD-insensitive isoforms, respectively (FIG. 6A).
One technical difficulty of our method is designing RT-qPCR primers specific to the cassette exon-skipping isoform, whose entire sequence is contained in the inclusion isoform. To specifically detect an inclusion isoform, we designed a primer entirely annealing to the cassette exon (exon B in FIG. 1A). For the exclusion isoform, junction primers annealing to the exon-skipping junction appear to be the only choices. This can be either a reverse primer (FIG. 1A) with its 5′ portion matching the downstream constitutive exon (exon C) and its 3′ portion matching the upstream constitutive exon (exon A) or a forward primer (not shown) with its 5′ and 3′ portions matching the upstream and downstream exons, respectively. The challenge is herein illustrated with reverse primers but also applies to forward primers. Many exon-skipping junction primers are able to amplify the inclusion isoforms (FIGS. 7A-D). The longer the 3′ portion of the junction primer annealing to the upstream constitutive exon, the easier the primer amplifies the inclusion transcripts (FIG. 7B). Some exon-skipping junction primers with 3′ portions as short as six nucleotides, as we've observed, can still anneal to and detect the inclusion isoform at 55-60° C., albeit at a lower efficiency than its detection of the exclusion isoform. On the other hand, a longer 5′ portion and a shorter 3′ portion increase the possibility of the primer annealing to the exon B-exon C junction because of the sequence similarity around 5′ splice sites (FIGS. 7C-D). We therefore had to identify NMD-associated cassette exons containing a 3′ end unlike that of its upstream exon. We then screened multiple exon-skipping junction primers for one that amplified only the exclusion isoform and not the inclusion isoform. All primer pairs were tested and confirmed for their specificity, RT-qPCR efficiency and linear dynamic ranges (FIG. 10). Finally, two stably expressed housekeeping genes, Gapdh and Sdha, were used as internal controls for normalization by geometric averaging (Vandesompele et al., 2002. Genome Biol 3: RESEARCH0034).
Because our method can be used on its own can to infer NMD regulation with a low false positive rate, one of its applications is unbiased screening for changes in cellular NMD activity. We screened a small panel of widely used pharmacological inhibitors for their effects on NMD. The expression of both the NMD and non-NMD isoforms of Ptbp2, Srsf11, Tra2b, Hnrnpl and Psd-95 were simultaneously measured before and after drug treatment. When the levels of all of the NMD isoforms were altered by a chemical in the same direction, the expression of the NMD and non-NMD isoforms under the treatment and control conditions was then subjected to ANOVA analysis to determine differential regulation of the two isoforms. We were interested in drugs that affected the NMD isoforms across the board and more strongly than the non-NMD counterparts. With this criterion, we identified thapsigargin as having potent activity in blocking cellular NMD.
Neuro-2a (N2a) cells were maintained in N2a complete media consisting of L-glutamine-free Dulbecco's modified Eagle's medium (DMEM), 10% FBS and 1× GlutaMAX at 37° C. […]

## C[C@H](CCC(=O)O)C[C@H](C)C[C@H](C)C(=O)/C=C(\O)[C@H](C)C[C@H](C)C/C=C/[C@@H](C)[C@@H](O)[C@@H](C)[C@@H](O)C[C@@H]1CC[C@@](C)([C@H]2CC[C@@](C)([C@@H](C)O)O2)O1 [ionomycin]
[1]; ionomycin treatment
  expression of immediately early genes c-Jun and Pip92: increased expression
[2]; 1 to 100 μM
  levels of the NMD isoforms: did not alter

## C[C@@H]1O[C@@H](O[C@H]2C[C@@H](O)[C@]3(CO)[C@H]4[C@H](O)C[C@]5(C)[C@@H](C6=CC(=O)OC6)CC[C@]5(O)[C@@H]4CC[C@]3(O)C2)[C@H](O)[C@H](O)[C@H]1O [ouabain]
[1]; 200 or 400 μM, N2a cells
  immediate early genes c-fos and Pip92: clearly stimulated; also recorded: clearly induced
[2]; 200 or 400 μM
  NMD isoforms at high concentration: not substantially enhanced
[2]; wide dose range, various time-points, N2a cells
  changes in cellular NMD activity: only minimal changes; also recorded: did not unequivocally affect NMD activity
